Among the data in patent US12435046B2, “Alkynyl quinazoline compounds” (Black Diamond Therapeutics, Inc., priority 2019, dated 2025) are IC50 values, retold here.

Common to all, as to assay type: cell-based
Conditions in all cases: Table A; BaF3 cells, 3 days

For one experiment, the target named is T1, EGFR SVD (Homo sapiens, UniProt P00533, INS770SVD).
T1 construct: expressed in transfected cells; host or cells: BaF3 (murine pro-B) cells, retroviral transduction with pMXs-IRES-Blasticidin
Nature of the experiment: BaF3 cell proliferation assay (CellTiterGlo), EGFR SVD. As for the experimental part: (§1) Retroviral Production: EGFR mutants were subcloned into pMXs-IRES-Blasticidin (RTV-016, Cell Biolabs, San Diego, CA). Retroviral expression vector retrovirus was produced by transient transfection of HEK 293T cells with the retroviral EGFR mutant expression vector pMXs-IRES-Blasticidin (RTV-016, Cell Biolabs), pCMV-Gag-Pol vector and pCMV-VSV-G-Envelope vector. Briefly, HEK 293T/17 cells were plated in 100 mm collagen coated plate (354450, Corning Life Sciences, Tewksbury, MA) (4×10^5 per plate) and incubated overnight. The next day, retroviral plasmids (3 ng of EGFR mutant, 1.0 ng of pCMV-Gag-Pol and 0.5 ng pCMV-VSV-G) were mixed in 500 n1 of Optimem (31985, Life Technologies). The mixture was incubated at room temperature for 5 min and then added to Optimem containing transfection reagent Lipofectamine (11668, Invitrogen) and incubated for 20 minutes. Mixture was then added dropwise to HEK 293T cells. The next day the medium was replaced with fresh culture medium and retrovirus was harvested @ 24 and 48 hrs.
(§2) Generation of EGFR mutant stable cell lines: BaF3 cells (1.5E5 cells) were infected with 1 ml of viral supernatant supplemented with 8 ng/ml polybrene by centrifuging for 30 min at 1000 rpm. Cells were placed in a 37° C. incubator overnight. Cells were then spun for 5 minutes to pellet the cells. Supernatant was removed and cells re-infected a fresh 1 ml of viral supernatant supplemented with 8 ng/ml polybrene by centrifuging for 30 min at 1000 rpm. Cells were placed in 37° C. incubator overnight. Cells were then maintained in RPMI containing 10% Heat Inactivated FBS, 2% L-glutamine containing 10 ng/ml IL-3. After 48 hours cells were selected for retroviral infection in 10 […] for one week. Blasticidin resistant populations were washed twice in phosphate buffered saline before plating in media lacking IL-3 to select for IL-3 independent growth.
(§3) Assay for cell proliferation: BaF3 cell lines were resuspended at 1.3E5 c/ml in RPMI containing 10% Heat Inactivated FBS, 2% L-glutamine and 1% Pen/Strep and dispensed in triplicate (17.5E4 c/well) into 96 well plates. To determine the effect of drug on cell proliferation, cells incubated for 3 days in the presence of vehicle control or test drug at varying concentrations. Inhibition of cell growth was determined by luminescent quantification of intracellular ATP content using CellTiterGlo (Promega), according to the protocol provided by the manufacturer. Comparison of cell number on day 0 versus 72 hours post drug treatment was used to plot dose-response curves. The number of viable cells was determined and normalized to vehicle-treated controls. Inhibition of proliferation, relative to vehicle-treated controls was expressed as a fraction of 1 and graphed using PRISM® software (Graphpad Software, San Diego, CA). EC50 values were determined with the same application.

In the next experiment the target is T2, HER2 S310F (Homo sapiens, UniProt P04626, S310F).
T2 construct: expressed in transfected cells; host or cells: BaF3 (murine pro-B) cells
T2 sequence (P04626 23-1255 S310F): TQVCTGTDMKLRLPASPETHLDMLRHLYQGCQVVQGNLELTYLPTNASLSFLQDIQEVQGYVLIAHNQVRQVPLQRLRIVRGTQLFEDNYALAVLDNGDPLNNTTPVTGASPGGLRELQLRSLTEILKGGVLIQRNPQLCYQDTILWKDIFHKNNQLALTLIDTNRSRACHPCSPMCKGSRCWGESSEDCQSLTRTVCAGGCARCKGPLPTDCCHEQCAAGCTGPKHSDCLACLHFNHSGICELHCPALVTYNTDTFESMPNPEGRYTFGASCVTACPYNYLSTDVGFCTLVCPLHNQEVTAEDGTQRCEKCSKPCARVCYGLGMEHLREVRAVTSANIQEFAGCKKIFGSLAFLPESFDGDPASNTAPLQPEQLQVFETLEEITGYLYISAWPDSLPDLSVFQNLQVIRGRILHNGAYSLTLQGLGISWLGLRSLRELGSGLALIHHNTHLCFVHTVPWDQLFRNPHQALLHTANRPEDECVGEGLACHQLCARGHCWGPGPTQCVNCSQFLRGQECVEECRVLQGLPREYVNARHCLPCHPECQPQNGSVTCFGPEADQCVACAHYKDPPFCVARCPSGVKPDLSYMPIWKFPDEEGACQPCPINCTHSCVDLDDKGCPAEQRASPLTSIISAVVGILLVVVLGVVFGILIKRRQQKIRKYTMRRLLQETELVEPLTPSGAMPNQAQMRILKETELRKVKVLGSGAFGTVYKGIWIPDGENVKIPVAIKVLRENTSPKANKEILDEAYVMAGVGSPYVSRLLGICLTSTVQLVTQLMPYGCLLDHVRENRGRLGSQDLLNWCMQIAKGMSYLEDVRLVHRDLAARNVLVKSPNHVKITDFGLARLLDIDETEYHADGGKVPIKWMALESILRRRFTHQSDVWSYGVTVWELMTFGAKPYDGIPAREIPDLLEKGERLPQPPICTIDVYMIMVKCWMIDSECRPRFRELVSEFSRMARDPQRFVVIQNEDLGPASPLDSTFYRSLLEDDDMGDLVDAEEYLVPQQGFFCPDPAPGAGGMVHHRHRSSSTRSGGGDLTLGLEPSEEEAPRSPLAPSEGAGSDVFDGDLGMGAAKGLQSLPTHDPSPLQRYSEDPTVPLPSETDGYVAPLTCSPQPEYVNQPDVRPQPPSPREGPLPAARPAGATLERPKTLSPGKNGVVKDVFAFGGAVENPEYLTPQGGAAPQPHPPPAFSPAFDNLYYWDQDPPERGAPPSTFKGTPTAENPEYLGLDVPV
Nature of the experiment: BaF3 cell proliferation assay (CellTiterGlo), HER2 S310F.

Another experiment addresses T3, EGFR wt (Homo sapiens, UniProt P00533).
T3 construct: expressed in transfected cells; host or cells: BaF3 (murine pro-B) cells, retroviral transduction with pMXs-IRES-Blasticidin
Description: BaF3 cell proliferation assay (CellTiterGlo), EGFR wt. The method, boiled down:
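BaF3 cells engineered by retroviral transduction to express EGFR and selected for blasticidin resistance and IL-3 independent growth were suspended at 1.3E5 c/ml in RPMI with 10% heat inactivated FBS, 2% L-glutamine and 1% Pen/Strep. They were plated in triplicate in 96 well plates and exposed to vehicle or varying drug concentrations for 3 days. Viability was quantified by CellTiterGlo ATP luminescence, normalized to vehicle, and curves fitted in PRISM.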
(ATP-based viability assays read luminescence as a measure of living cells.)

Another experiment has as its target T4, EGFR NPH (Homo sapiens, UniProt P00533, INS773NPH).
T4 construct: expressed in transfected cells; host or cells: BaF3 (murine pro-B) cells, retroviral transduction with pMXs-IRES-Blasticidin
Description: BaF3 cell proliferation assay (CellTiterGlo), EGFR NPH. As for the experimental part: as §1, §2, §3

In a further experiment the target is T5, HER2 YVMA (Homo sapiens, UniProt P04626, INS775YVMA).
T5 construct: expressed in transfected cells; host or cells: BaF3 (murine pro-B) cells
T5 sequence (P04626 with tags, fused parts or gaps INS775YVMA): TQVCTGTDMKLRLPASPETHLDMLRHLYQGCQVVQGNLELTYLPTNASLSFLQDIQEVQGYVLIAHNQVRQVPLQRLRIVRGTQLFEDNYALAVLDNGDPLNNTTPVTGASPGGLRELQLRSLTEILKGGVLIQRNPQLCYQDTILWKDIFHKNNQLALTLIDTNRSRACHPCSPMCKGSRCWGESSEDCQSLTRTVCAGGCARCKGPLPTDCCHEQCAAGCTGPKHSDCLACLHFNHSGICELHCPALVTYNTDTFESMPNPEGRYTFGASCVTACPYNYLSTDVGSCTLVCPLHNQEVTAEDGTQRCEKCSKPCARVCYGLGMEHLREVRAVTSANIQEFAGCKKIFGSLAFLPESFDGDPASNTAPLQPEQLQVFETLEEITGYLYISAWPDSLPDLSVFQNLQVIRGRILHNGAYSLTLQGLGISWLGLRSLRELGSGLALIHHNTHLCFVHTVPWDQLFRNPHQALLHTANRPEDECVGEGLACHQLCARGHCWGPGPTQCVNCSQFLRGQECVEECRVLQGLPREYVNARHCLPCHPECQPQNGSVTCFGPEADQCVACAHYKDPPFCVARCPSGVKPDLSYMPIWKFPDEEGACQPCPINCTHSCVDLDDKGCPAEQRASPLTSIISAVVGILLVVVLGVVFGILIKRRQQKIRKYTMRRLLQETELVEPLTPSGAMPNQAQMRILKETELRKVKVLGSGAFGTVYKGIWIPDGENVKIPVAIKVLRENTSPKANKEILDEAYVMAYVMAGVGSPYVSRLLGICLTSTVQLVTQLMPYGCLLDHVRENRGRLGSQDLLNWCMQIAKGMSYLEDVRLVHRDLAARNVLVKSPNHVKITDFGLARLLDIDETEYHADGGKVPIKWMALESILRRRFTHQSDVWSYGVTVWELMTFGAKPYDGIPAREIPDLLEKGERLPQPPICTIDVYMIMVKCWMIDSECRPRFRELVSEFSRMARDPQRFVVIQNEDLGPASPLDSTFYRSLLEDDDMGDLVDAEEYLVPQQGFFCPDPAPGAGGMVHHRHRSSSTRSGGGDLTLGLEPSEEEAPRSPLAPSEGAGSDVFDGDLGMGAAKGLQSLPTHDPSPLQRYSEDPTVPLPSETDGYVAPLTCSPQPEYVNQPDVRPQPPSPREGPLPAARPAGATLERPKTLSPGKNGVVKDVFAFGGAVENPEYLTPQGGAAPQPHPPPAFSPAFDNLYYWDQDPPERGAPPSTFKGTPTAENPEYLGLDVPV
Nature of the experiment: BaF3 cell proliferation assay (CellTiterGlo), HER2 YVMA.

The target in the next experiment is T6, EGFR V3 (Homo sapiens, UniProt P00533, DELINS30-297G).
T6 construct: expressed in transfected cells; host or cells: BaF3 (murine pro-B) cells, retroviral transduction with pMXs-IRES-Blasticidin
Nature of the experiment: BaF3 cell proliferation assay (CellTiterGlo), EGFR V3. The method, boiled down:
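BaF3 cells made IL-3-independent by retroviral expression of each EGFR or HER2 mutant were treated in triplicate with compound for 72 h. Viability was read by CellTiterGlo ATP luminescence and normalised to vehicle, and EC50 was fitted from dose-response curves.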

Each structure is given as a SMILES string. A value given as a limit tells only on which side of the number the result lay.

T3 sequence (P00533 25-1210): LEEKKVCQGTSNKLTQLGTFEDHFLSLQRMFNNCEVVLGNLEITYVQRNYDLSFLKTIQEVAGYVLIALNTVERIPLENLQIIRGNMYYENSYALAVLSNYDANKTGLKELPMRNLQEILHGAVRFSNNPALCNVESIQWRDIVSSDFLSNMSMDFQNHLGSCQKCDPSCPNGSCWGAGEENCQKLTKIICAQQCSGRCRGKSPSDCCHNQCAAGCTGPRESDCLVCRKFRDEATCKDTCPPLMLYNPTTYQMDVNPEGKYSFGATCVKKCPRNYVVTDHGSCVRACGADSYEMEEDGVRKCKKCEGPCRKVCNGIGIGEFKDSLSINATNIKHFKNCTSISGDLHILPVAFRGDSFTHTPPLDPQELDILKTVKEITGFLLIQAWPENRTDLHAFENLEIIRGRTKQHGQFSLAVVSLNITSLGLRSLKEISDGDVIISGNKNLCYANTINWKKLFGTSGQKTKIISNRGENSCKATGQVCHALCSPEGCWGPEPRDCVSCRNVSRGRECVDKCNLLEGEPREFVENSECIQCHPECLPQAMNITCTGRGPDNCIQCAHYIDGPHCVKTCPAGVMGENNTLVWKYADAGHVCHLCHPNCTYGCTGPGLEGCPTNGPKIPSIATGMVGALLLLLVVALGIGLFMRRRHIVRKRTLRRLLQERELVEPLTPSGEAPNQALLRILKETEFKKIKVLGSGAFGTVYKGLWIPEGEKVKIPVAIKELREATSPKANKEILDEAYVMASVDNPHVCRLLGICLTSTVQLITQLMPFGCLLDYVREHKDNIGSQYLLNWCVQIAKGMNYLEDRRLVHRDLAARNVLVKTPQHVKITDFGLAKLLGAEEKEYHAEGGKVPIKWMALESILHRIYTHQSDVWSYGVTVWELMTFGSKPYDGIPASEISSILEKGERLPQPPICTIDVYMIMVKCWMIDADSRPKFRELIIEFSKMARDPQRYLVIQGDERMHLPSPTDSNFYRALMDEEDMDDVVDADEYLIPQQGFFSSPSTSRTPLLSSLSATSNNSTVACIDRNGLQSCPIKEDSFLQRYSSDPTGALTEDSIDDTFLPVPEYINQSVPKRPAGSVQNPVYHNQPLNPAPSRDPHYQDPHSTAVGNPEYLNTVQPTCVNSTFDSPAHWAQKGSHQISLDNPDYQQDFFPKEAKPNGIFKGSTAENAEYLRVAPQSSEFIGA
T1 sequence (P00533 with tags, fused parts or gaps INS770SVD): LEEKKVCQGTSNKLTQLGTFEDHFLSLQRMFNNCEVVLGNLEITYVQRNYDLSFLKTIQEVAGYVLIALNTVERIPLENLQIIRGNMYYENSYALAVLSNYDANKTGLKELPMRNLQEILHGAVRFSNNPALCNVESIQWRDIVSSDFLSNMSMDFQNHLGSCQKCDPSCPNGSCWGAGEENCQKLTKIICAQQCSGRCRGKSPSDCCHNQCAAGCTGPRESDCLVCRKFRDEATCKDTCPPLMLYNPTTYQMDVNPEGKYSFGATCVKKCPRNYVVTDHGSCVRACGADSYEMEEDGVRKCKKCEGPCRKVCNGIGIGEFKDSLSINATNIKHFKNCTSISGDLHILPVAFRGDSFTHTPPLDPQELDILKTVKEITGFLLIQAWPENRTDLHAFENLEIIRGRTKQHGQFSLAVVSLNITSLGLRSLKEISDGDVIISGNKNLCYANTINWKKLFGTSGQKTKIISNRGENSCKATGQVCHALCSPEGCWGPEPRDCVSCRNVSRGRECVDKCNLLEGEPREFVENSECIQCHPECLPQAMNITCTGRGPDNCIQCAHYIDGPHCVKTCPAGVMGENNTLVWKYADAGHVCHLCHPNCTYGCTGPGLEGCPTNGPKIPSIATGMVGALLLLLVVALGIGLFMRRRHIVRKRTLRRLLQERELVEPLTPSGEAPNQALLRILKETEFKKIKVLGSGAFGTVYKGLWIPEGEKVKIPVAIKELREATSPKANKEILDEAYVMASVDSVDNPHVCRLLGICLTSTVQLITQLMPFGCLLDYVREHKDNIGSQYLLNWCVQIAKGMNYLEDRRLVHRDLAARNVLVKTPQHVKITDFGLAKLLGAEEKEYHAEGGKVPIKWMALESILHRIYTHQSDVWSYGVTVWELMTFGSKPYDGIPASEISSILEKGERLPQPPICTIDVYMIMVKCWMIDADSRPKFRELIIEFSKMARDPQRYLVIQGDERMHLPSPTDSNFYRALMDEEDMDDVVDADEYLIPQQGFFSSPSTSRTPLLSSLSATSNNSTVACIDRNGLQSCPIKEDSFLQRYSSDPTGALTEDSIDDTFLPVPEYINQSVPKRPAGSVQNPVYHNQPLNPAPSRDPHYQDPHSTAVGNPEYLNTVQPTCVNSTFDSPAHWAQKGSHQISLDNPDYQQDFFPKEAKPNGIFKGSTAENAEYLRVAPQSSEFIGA

A word on the IC50: it is the concentration that inhibits the measured activity by half. Read a high IC50 as weaker potency in that assay. `C=CC(=O)Nc1cc2c(Nc3cccc(Cl)c3F)ncnc2cc1C#C[C@]1(C)CCN(C)C1` [Compound 3, (S)—N-(4-((3-chloro-2-fluorophenyl)amino)-7-((1,3-dimethylpyrrolidin-3-yl)ethynyl)quinazolin-6-yl)acrylamide]: the IC50 on EGFR SVD is 100 to 500 nM; on HER2 S310F, 50 to 100 nM; on EGFR wt, 50 to 100 nM; against EGFR NPH, 50 to 100 nM; against HER2 YVMA, 100 to 500 nM; against EGFR V3, not above 50 nM.

As to `C=CC(=O)Nc1cc2c(Nc3ccc(Oc4ccccc4)cc3)ncnc2cc1C#C[C@]12C[C@H]1CN(C)C2` [Compound 41, N-(7-(((1S,5R)-3-methyl-3-azabicyclo[3.1.0]hexan-1-yl)ethynyl)-4-((4-phenoxyphenyl)amino)quinazolin-6-yl)acrylamide], the IC50 was 100 to 500 nM on EGFR SVD; 100 to 500 nM against EGFR wt; 100 to 500 nM on EGFR NPH; not above 50 nM against HER2 YVMA; not above 50 nM on EGFR V3.

Consider `C=CC(=O)Nc1cc2c(Nc3ccc(OCc4ccccn4)c(Cl)c3)ncnc2cc1C#CC1(C)CCN(C)C1` (stereo not drawn) [Compound 12, N-(4-((3-chloro-4-(pyridin-2-ylmethoxy)phenyl)amino)-7-((1,3-dimethylpyrrolidin-3-yl)ethynyl)quinazolin-6-yl)acrylamide], for which the IC50 on EGFR SVD is not above 50 nM; against HER2 S310F, not above 50 nM; against EGFR wt, more than 500 nM; on EGFR NPH it was not above 50 nM; at HER2 YVMA it was not above 50 nM; against EGFR V3 it was not above 50 nM.

As to `C=CC(=O)Nc1cc2c(Nc3cccc(Cl)c3F)ncnc2cc1C#C[C@@]1(C)CCN(C)C1` [Compound 2, (R)—N-(4-((3-chloro-2-fluorophenyl)amino)-7-((1,3-dimethylpyrrolidin-3-yl)ethynyl)quinazolin-6-yl)acrylamide], the IC50 against EGFR SVD was 100 to 500 nM; against HER2 S310F, 50 to 100 nM; against EGFR wt, 100 to 500 nM; against EGFR NPH, 50 to 100 nM; against HER2 YVMA it was 100 to 500 nM; on EGFR V3 it was not above 50 nM.

Regarding `C=C(C)C(=O)Nc1cc2c(Nc3cccc(Cl)c3F)ncnc2cc1C#C[C@@]1(C)CCN(C)C1` [Compound 25, (R)—N-(4-((3-chloro-2-fluorophenyl)amino)-7-((1,3-dimethylpyrrolidin-3-yl)ethynyl)quinazolin-6-yl)methacrylamide], the IC50 at HER2 S310F was more than 500 nM; against EGFR wt, 100 to 500 nM; against HER2 YVMA, more than 500 nM; on EGFR V3, more than 500 nM.

Regarding `C=CC(=O)Nc1cc2c(Nc3ccc(O)c(Cl)c3)ncnc2cc1C#C[C@@H]1[C@H]2CN(C)C[C@@H]12` [Compound 73, N-(4-((3-chloro-4-hydroxyphenyl)amino)-7-(((1R,5S,6s)-3-methyl-3-azabicyclo[3.1.0]hexan-6-yl)ethynyl)quinazolin-6-yl)acrylamide], the IC50 at HER2 S310F was not above 50 nM; at EGFR wt it was 50 to 100 nM; against HER2 YVMA it was 100 to 500 nM; on EGFR V3, not above 50 nM.

Take `C=CC(=O)Nc1cc2c(Nc3cccc(Cl)c3F)ncnc2cc1C#C[C@]1(C)CCN(C2COC2)C1` [Compound 58, (S)—N-(4-((3-chloro-2-fluorophenyl)amino)-7-((3-methyl-1-(oxetan-3-yl)pyrrolidin-3-yl)ethynyl)quinazolin-6-yl)acrylamide]: the IC50 on HER2 S310F was 50 to 100 nM; against EGFR wt it was 100 to 500 nM; on HER2 YVMA, more than 500 nM; against EGFR V3 it was not above 50 nM.

For `C=CC(=O)Nc1cc2c(Nc3cccc(Cl)c3F)ncnc2cc1C#CC1CCN(C)C1` (stereo not drawn) [Compound 77, N-(4-((3-chloro-2-fluorophenyl)amino)-7-((1-methylpyrrolidin-3-yl)ethynyl)quinazolin-6-yl)acrylamide], the IC50 against HER2 S310F was not above 50 nM; against EGFR wt it was not above 50 nM; against HER2 YVMA, 100 to 500 nM; on EGFR V3, not above 50 nM.

As to `C=CC(=O)Nc1cc2c(Nc3cccc(Cl)c3F)ncnc2cc1C#C[C@@]1(C)CCN(C2COC2)C1` [Compound 59, (R)—N-(4-((3-chloro-2-fluorophenyl)amino)-7-((3-methyl-1-(oxetan-3-yl)pyrrolidin-3-yl)ethynyl)quinazolin-6-yl)acrylamide], the IC50 at HER2 S310F is 100 to 500 nM; at EGFR wt, 100 to 500 nM; against HER2 YVMA, more than 500 nM; on EGFR V3, not above 50 nM.

With `C=CC(=O)Nc1cc2c(Nc3cccc(Cl)c3F)ncnc2cc1C#C[C@]12C[C@H]1CN(C1COC1)C2` [Compound 48, N-(4-((3-chloro-2-fluorophenyl)amino)-7-(((1S,5R)-3-(oxetan-3-yl)-3-azabicyclo[3.1.0]hexan-1-yl)ethynyl)quinazolin-6-yl)acrylamide], the IC50 is 100 to 500 nM on HER2 S310F, 100 to 500 nM at EGFR wt, more than 500 nM against HER2 YVMA and 100 to 500 nM against EGFR V3.

For `C=CC(=O)Nc1cc2c(Nc3ccc(F)c(Cl)c3F)ncnc2cc1C#CC1(C)CCN(C)C1` (stereo not drawn) [Compound 8, N-(4-((3-chloro-2,4-difluorophenyl)amino)-7-((1,3-dimethylpyrrolidin-3-yl)ethynyl)-quinazolin-6-yl)acrylamide], the IC50 against HER2 S310F was 50 to 100 nM; at EGFR wt, not above 50 nM; on HER2 YVMA, 100 to 500 nM; against EGFR V3, not above 50 nM.

For `C=CC(=O)Nc1cc2c(Nc3cccc(Cl)c3F)ncnc2cc1C#C[C@]1(F)CCN(C)C1` [Compound 46, N-{4-[(3-chloro-2-fluorophenyl)amino]-7-{2-[(3R)-3-fluoro-1-methyl-pyrrolidin-3-yl]ethynyl}quinazolin-6-yl}prop-2-enamide], the IC50 at HER2 S310F was 100 to 500 nM; at EGFR wt it was 100 to 500 nM; on HER2 YVMA, more than 500 nM; on EGFR V3, not above 50 nM.

Regarding `C=CC(=O)Nc1cc2c(Nc3ccc(OCc4ccccn4)c(Cl)c3)ncnc2cc1C#C[C@@]1(C)CCCN1C` [Compound 16, (R)—N-(4-((3-chloro-4-(pyridin-2-ylmethoxy)phenyl)amino)-7-((1,2-dimethylpyrrolidin-2-yl)ethynyl)quinazolin-6-yl)acrylamide], the IC50 against HER2 S310F was not above 50 nM; on EGFR wt it was more than 500 nM; against HER2 YVMA, 100 to 500 nM; against EGFR V3, 50 to 100 nM.

With `C=CC(=O)Nc1cc2c(Nc3cccc(Cl)c3F)ncnc2cc1C#C[C@@]1(C)CCCN1C` [Compound 6, (R)—N-(4-((3-chloro-2-fluorophenyl)amino)-7-((1,2-dimethylpyrrolidin-2-yl)-ethynyl)quinazolin-6-yl)acrylamide], the IC50 was 100 to 500 nM on HER2 S310F, more than 500 nM on EGFR wt, more than 500 nM on HER2 YVMA and 50 to 100 nM against EGFR V3.

On to `C=CC(=O)Nc1cc2c(Nc3cccc(Cl)c3F)ncnc2cc1C#CC1(C)CCN(C)C1` (stereo not drawn) [Compound 1, N-(4-((3-chloro-2-fluorophenyl)amino)-7-((1,3-dimethylpyrrolidin-3-yl)ethynyl)quinazolin-6-yl)acrylamide], for which the IC50 on EGFR SVD is 100 to 500 nM; on HER2 S310F, 50 to 100 nM; against EGFR wt, 50 to 100 nM; on EGFR NPH it was 50 to 100 nM; against HER2 YVMA it was 100 to 500 nM; against EGFR V3, not above 50 nM.
